Results as given in patent US20250339817A1, “A PROCESS FOR THE NITRIC OXIDE ABATEMENT THROUGH BIOLOGICAL TREATMENTS” (FUNDACIÓ EURECAT, priority 2022, published 2025).

Experiments:
Format in all cases: physicochemical
[1] = Mass transfer gas-to-liquid tests in a two-phase system (CO2/NAP); conditions: pure CO2 (without gas mixture), 1 h
Protocol: Mass transfer gas-to-liquid batch tests were performed to determine the mass transfer rate of CO2 in the presence of NAP. The initial samples were filled with CO2 to reach a peak transmittance area between 6200 and 7100 cm-1, then 10 mL of each NAP (HTX, HNO and HEX) was injected. […] CO2 in the gas phase were measured at the beginning and at the end of the test. All experiments were performed in 500 mL amber glass bottles previously prepared in a glove box to maintain an inert atmosphere and carried out per at least triplicate at a temperature of 25° C. and 100 rpm orbital shaking in an incubator.
(§1) NO and CO2 peak area in the gas phase were measured by Fourier Transform Infrared Spectroscopy (FTIR). In these experiments the peak area was analyzed and not the concentration. Therefore, the performance of the tests will be given in percent (%) area reduction, which is defined in Eq 1. Nitrogen compounds were analyzed in liquid samples after being centrifuged at 15,000 rpm and filtration (0.22 μm) to separate the NAP found in the sample. NO2^− and NO3^− were measured using Hach Lange kits (LCK342 and LCK 339, respectively, Hach Lange, Germany).
(§2) The initial area (Areainitial) is a quantitative measure of the transmittance at certain given wavelengths (NO=1730-1930 cm^−1; CO2=2230-2400 cm^−1) and correlates the presence of the compound in the sample at time=0 h. The final area (Areafinal) is a quantitative measure of the transmittance at the given wavelengths (NO=between 1730-1930 cm^−1; CO2=2230-2400 cm-1) and correlates with the presence of the compound in the sample at time=1 h.

[2] = Mass transfer gas-to-liquid batch tests in a two-phase system with a mixture of gases (CO2/NO/NAP), CO2; conditions: 1 h
Protocol: (§3) Mass transfer gas-to-liquid batch tests with a mixture of gases with CO2 and NO were performed to determine the mass transfer rate and selectivity of these gases in the presence of NAP. The initial samples were filled with CO2 to reach a peak transmittance area between 6388 and 8018 cm^−1 and NO to reach a peak of transmittance area between 73 and 84 cm^−1, then 10 mL of each NAP (HTX, HNO and HEX) was injected. CO2 and NO in the gas phase were measured at the beginning and at the end of the test. All experiments were carried out per at least triplicate at a temperature of 25° C. and 100 rpm orbital shaking in an incubator. These tests had also a blank in which the NAP phase was replaced by phosphate buffer (pH=8).
as §1, §2

[3] = Mass transfer gas-to-liquid batch tests in a two-phase system with a mixture of gases (CO2/NO/NAP), NO; conditions: 1 h
Protocol: as §3, §1, §2

[4] = Mass transfer gas-to-liquid batch tests in a three-phase system (CO2/NO/Aqueous/NAP), NO; design: concentration or dose not given beside the values; conditions: phosphate buffer
Protocol: (§4) Mass transfer gas-to-liquid batch tests with a mixture of gases with CO2 and NO were performed to determine the mass transfer rate and selectivity of these gases in the presence of NAP and aqueous phase. The results were compared with respect to blank (water or phosphate buffer at pH 8 without NAP). The initial samples were filled with CO2 to reach a peak transmittance area between 8010 and 8940 cm^−1 and NO to reach a peak of transmittance area between 11 and 14 cm^−1, then 10 mL of each NAP (HTX, HNO and HEX) was injected. Tests were performed with a phosphate buffer at pH 8 at a 10% v/v ratio of NAP/aqueous phase. All experiments were performed in 500 mL amber glass bottles previously prepared in a glove box to maintain an inert atmosphere and carried out per at least triplicate at a temperature of 25° C. and 100 rpm orbital shaking in an incubator. CO2 and NO in the gas phase were measured at the beginning and at the end of the test. Also, the liquid phase was monitored for pH, nitrite (NO2^−) and nitrate (NO3^−) at the end of each test.
as §1, §2

[5] = Mass transfer gas-to-liquid batch tests in a three-phase system (CO2/NO/Aqueous/NAP), CO2; conditions: gas mixture, phosphate buffer
Protocol: as §4, §1, §2

[6] = Nitric oxide (NO) absorption with pure NAPs (batch tests); conditions: pure NAP, first screening test, 1 hour, 25° C., initial NO 4500-5100 ppmv
Protocol: Batch tests with pure NAPs were performed in 120 mL glass amber vials with an initial concentration of NO between 4500 and 5100 ppmv and different amounts of NAPs (DES, SO, HTX, HNO and HEX). For this experiment each NAP was added to a vial containing NO. Each NAP was tested alone. The results were compared with respect to a blank containing deionized water instead of NAP. All experiments were carried out at a temperature of 25° C. and agitation of 100 rpm in an incubator, five replicates were made per point. Gas phase analysis (NO and NO2) was performed at the beginning of the experiment and at the end (1 hour).
NO and NO2 concentrations in the gas phase were measured by Fourier Transform Infrared Spectroscopy (FTIR) from an aliquot of 1 mL (PerkinElmer Inc., Spain). The NO removal efficiency in the tests was calculated from the difference in NO concentration from the beginning and end of each test. Nitrogen compounds and chemical oxygen demand (COD) were analyzed in liquid samples after centrifuged at 15,000 rpm and filtration (0.22 μm) to separate the NAP found in the sample. Nitrite and nitrate were measured using Hach Lange kits (LCK342 and LCK 339, respectively, Hach Lange, Germany). COD was measured using Hach Lange kits (LCK114 and LCK 214, respectively, Hach Lange, Germany).

SMILES: CC(CC(C)(C)C)CC(C)(C)CC(C)(C)C (centres unmarked) [HNO, 2,2,4,4,6,8,8-heptamethylnonane]
- CO2 peak area reduction [1]: 18±3%
- CO2 peak area reduction [2]: 13±0.3%
- NO percent of area reduction [3]: 21±4%
- NO percent of area reduction ([4]; with CO2): 54±4%
- NO percent of area reduction ([4]; without CO2): 32±4%
- CO2 peak area difference [5]: 3±7%

SMILES: CCCCCCCCCCCCCCCC [HEX, n-hexadecane]
- RE NO (NO removal efficiency) [6]: 29.2%
- CO2 peak area reduction [1]: 11±3%
- CO2 peak area reduction [2]: 15±2%
- NO percent of area reduction [3]: 31±6%
- NO percent of area reduction ([4]; with CO2): 28±3%
- NO percent of area reduction ([4]; without CO2): 26±5%
- CO2 peak area difference [5]: 8±2%

SMILES: C[SiH](O[Si](C)(C)C)O[Si](C)(C)C [HTX, 1,1,1,3,5,5,5-heptamethyl-trisiloxane]
- RE NO (NO removal efficiency) [6]: 49.2%
- CO2 peak area reduction [1]: 99±0.2%
- CO2 peak area reduction [2]: 97±0.9%
- NO percent of area reduction [3]: 62±5%
- NO percent of area reduction ([4]; with CO2): 56±7%
- NO percent of area reduction ([4]; without CO2): 70±3%
- CO2 peak area difference [5]: 7±2%
